The numbers were not newly measured in article PMC6260473 (Saudi Pharmaceutical Journal : SPJ, 2018), which cites them from elsewhere.

Structures are written as SMILES.

For the series, the system named is human colorectal adenocarcinoma cell lined HT29. As to conditions: read-out: IC50, cytotoxic effect, ref Nowak et al., 2014.

With `COc1ccc(Cn2cnc3c(cc(N4CCOCC4)c4ccccc43)c2=O)cc1` [3-(4-methoxybenzyl)-6-(morpholin-4-yl)benzo[h]quinazolin-4(3H)-one], the IC50 is 4.12 µM.
For `N.N.[Cl][Pt][Cl]` [cisplatin], the IC50 was 8.47 µM.
